Source: US8748568B2, “Isolated A-type FHF N-terminal domain peptides and methods of use” (Research Foundation of The City University of New York, priority 2009, dated 2014)
Entries after “also recorded” stand apart in the source; their conditions may differ.

What was measured:
[1] = tested on: mutant VGSC in which the fast inactivation particle was disabled (Nav1.6); assay: Long-term inactivation of mutant VGSC with disabled fast inactivation particle, whole cell voltage clamp; format: cell-based; details: single cycle of membrane depolarization
Description: . Nav1.6 currents were analyzed in cells without FHFs (left panels—FIG. 7) or after transient transfection with a DNA vector expressing full-length FHF2A protein (right panels—FIG. 7).

[2] = tested on: TTX-resistant Nav1.6; assay: Voltage dependence of steady state inactivation of Nav1.6 in Neuro2A cells; format: cell-based
Description: A Neuro2A cell expressing TTX-resistant Nav1.6 and transfected to express FHF2A was analyzed for the voltage dependence of steady state inactivation, long-term inactivation, and activation, using specific voltage command protocols. For steady state inactivation, cells were held at different “test command” voltages for 60 milliseconds followed immediately by further depolarization to 0 mV; the residual peak current derives from channels not inactivated (i.e. still available). For long term inactivation, cells were held at different “test command” voltages for 60 milliseconds, with each test command followed by 40 millisecond recovery at −90 mV before depolarization to 0 mV; peak current derives from channels that have not undergone long-term inactivation. […]
(§1) Neuro2A cells expressing TTX-resistant Nav1.6 were analyzed for TTX-resistant sodium currents following whole cell patch clamp using pipette solution containing peptide corresponding to N-terminal residues 2-21 of FHF2A (referred to as ANTD, for A-type N-terminal domain). Peptide injected cells were subjected to four 16 millisecond depolarization cycles (0 mV) separated by 40 millisecond recovery periods (−90 mV), and peak inward Nav1.6-mediated sodium currents were recorded for each depolarization.

[3] = tested on: TTX-resistant Nav1.6; assay: Whole cell voltage clamp of Nav1.6 currents in Neuro2A cells: long-term inactivation through repeated depolarization cycles; format: cell-based
Description: […]. Nav1.6 currents were analyzed in cells without FHFs (upper panels) or after transient transfection with a DNA vector expressing full-length FHF2A protein (lower panels). The holding voltage was −90 mV. Cells were subjected to two 6 millisecond depolarizations at 0 mV separated by −90 mV interpulse recovery periods of 0.5 to 20 msec (left panels). All 40 command sweeps are shown.
Neuro2A cells expressing TTX-resistant Nav1.6 were transfected with DNA expression vectors for FHF1A, FHF1B, FHF2A, FHF2B, or FHF4B. Transfected cells in the presence of TTX were subjected to four 16 millisecond depolarization cycles (0 mV) separated by 40 millisecond recovery periods (−90 mV), and peak inward Nav1.6-mediated sodium currents were recorded for each depolarization.
A Neuro2A cell expressing TTX-resistant Nav1.6 and transfected to express FHF2A was analyzed for the voltage dependence of steady state inactivation, long-term inactivation, and activation, using specific voltage command protocols. For steady state inactivation, cells were held at different “test command” voltages for 60 milliseconds followed immediately by further depolarization to 0 mV; the residual peak current derives from channels not inactivated (i.e. still available). For long term inactivation, cells were held at different “test command” voltages for 60 milliseconds, with each test command followed by 40 millisecond recovery at −90 mV before depolarization to 0 mV; peak current derives from channels that have not undergone long-term inactivation. For activation, cells were depolarized to different “test command” voltages, and peak inward currents were converted to percent maximum conductance to reflect percentage of channels transiently activated.
as §1

[4] = tested on: cerebellar granule neurons; assay: Voltage clamp and current clamp of cultured cerebellar granule neurons; format: cell-based, Mouse; details: 1 mM peptide injected
Description: Mouse cerebellar granule neurons were cultured for 14 days under conditions that promoted their maturation to a fully excitable state. These neurons were Whole cell patched and subjected to voltage clamp and current clamp protocols. In voltage clamp, neurons were depolarized four times for 16 milliseconds to 0 mV with 40 millisecond interpulse recoveries at −90 mV (left panels). In current clamp, positive current injection for 800 milliseconds was used to trigger firing of action potentials. A range of currents were tested, and only the recordings from currents giving highest frequency and amplitude of action potentials are shown (right panels).

[5] = four 16 msec depolarization cycles at 0 mV separated by 40 msec recoveries at -90 mV, cells transfected with FHF expression vector

FHF2A: full-length FHF2A protein, fibroblast growth factor homologous factor, expressed from a transfected DNA vector (AAAIASSLIRQKRQAREREK)
channels driven into long-term inactivation [1]: nearly all channels being driven into long-term inactivation
effect on voltage dependence of steady state (fast) inactivation of Nav1.6 [2]: depolarizing shift
percentage of channels that undergo long-term inactivation ([3]; 60 msec test command, 40 msec recovery at -90 mV, then 0 mV, not increased by further depolarization): 35-40%
long-term inactivation of Nav1.6 [3, 5]: induce long-term inactivation
long-term inactivation of Nav1.6 ([3]; four 16 msec depolarization cycles at 0 mV separated by 40 msec recoveries at -90 mV, cells transfected with FHF expression vector, listed as FHF2A protein): channels accumulate into a long-term inactivated state with each depolarization cycle; also recorded: induces both long-term inactivation
voltage at which long-term inactivation occurs relative to steady state inactivation ([3]; test command voltage protocols, FHF2A-transfected cell): far more depolarized voltage than steady state inactivation
fraction of channels that do not rapidly recover from inactivation ([3]; two 6 msec depolarizations at 0 mV, -90 mV interpulse recovery 0.5 to 20 msec, cells transfected with FHF vector): approximately one-third

AAAIASSLIRQKRQAREREK [ANTD peptide, peptide corresponding to N-terminal residues 2-21 of FHF2A]
channels driven into long-term inactivation [1]: nearly all
effect on voltage dependence of steady state (fast) inactivation of Nav1.6 [2]: no significant effect
action potentials generated upon current injection ([4]; current clamp, 800 msec positive current injection): only a single action potential
inward sodium currents ([4]; voltage clamp, four 16 msec depolarizations to 0 mV, 40 msec recoveries at -90 mV): decrease with each cycle of depolarization
outward potassium currents ([4]; voltage clamp, four depolarization cycles): unaffected
long-term inactivation of Nav1.6 ([3]; 0.5 mM peptide in pipette solution, four 16 msec depolarization cycles, 40 msec recoveries): induced long-term inactivation, albeit to lesser degree
long-term inactivation of Nav1.6 ([3]; 1 mM peptide in pipette solution, four 16 msec depolarization cycles, 40 msec recoveries): robust accumulation into long-term inactivation
dose dependence of peptide-induced long-term inactivation ([3]; 1 mM versus 0.5 mM): dose dependent
onset of long-term inactivation ([3]; 1 millimolar peptide, compared with native protein): faster onset of long-term inactivation than the native protein

B1: FHF1B: B-type fibroblast growth factor homologous factor expressed from a DNA expression vector (protein)
chain: MESKEPQLKGIVTRLFSQQGYFLQMHPDGTIDGTKDENSDYTLFNLIPVGLRVVAIQGVKASLYVAMNGEGYLYSSDVFTPECKFKESVFENYYVIYSSTLYRQQESGRAWFLGLNKEGQIMKGNRVKKTKPSSHFVPKPIEVCMYREPSLHEIGEKQGRSRKSSGTPTMNGGKVVNQDST
long-term inactivation of Nav1.6 [3, 5]: do not

B2: FHF2B: B-type fibroblast growth factor homologous factor expressed from a DNA expression vector (protein)
chain: MALLRKSYSEPQLKGIVTKLYSRQGYHLQLQADGTIDGTKDEDSTYTLFNLIPVGLRVVAIQGVQTKLYLAMNSEGYLYTSELFTPECKFKESVFENYYVTYSSMIYRQQQSGRGWYLGLNKEGEIMKGNHVKKNKPAAHFLPKPLKVAMYKEPSLHDLTEFSRSGSGTPTKSRSVSGVLNGGKSMSHNEST
long-term inactivation of Nav1.6 [3, 5]: do not

B3: FHF4B: B-type fibroblast growth factor homologous factor expressed from a DNA expression vector (protein)
chain: MVKPVPLFRRTDFKLLLCNHKDLFFLRVSKLLDCFSPKSMWFLWNIFSKGTHMLQCLCGKSLKKNKNPTDPQLKGIVTRLYCRQGYYLQMHPDGALDGTKDDSTNSTLFNLIPVGLRVVAIQGVKTGLYIAMNGEGYLYPSELFTPECKFKESVFENYYVIYSSMLYRQQESGRAWFLGLNKEGQAMKGNRVKKTKPAAHFLPKPLEVAMYREPSLHDVGETVPKPGVTPSKSTSASAIMNGGKPVNKSKTT
long-term inactivation of Nav1.6 [3, 5]: do not
